From publication PMC5461267, “Membrane Guanylate Cyclase catalytic Subdomain: Structure and Linkage with Calcium Sensors and Bicarbonate” (Frontiers in Molecular Neuroscience, 2017)

T1: ROS-GC1 (rod outer segment guanylate cyclase type 1), full-length recombinant (Bos taurus, UniProt P55203)
T1 construct: gene GUCY2D; full-length wild-type cDNA expressed in COS-7 cells; membrane fraction assayed; homodimer
T1 sequence (P55203 57-1110): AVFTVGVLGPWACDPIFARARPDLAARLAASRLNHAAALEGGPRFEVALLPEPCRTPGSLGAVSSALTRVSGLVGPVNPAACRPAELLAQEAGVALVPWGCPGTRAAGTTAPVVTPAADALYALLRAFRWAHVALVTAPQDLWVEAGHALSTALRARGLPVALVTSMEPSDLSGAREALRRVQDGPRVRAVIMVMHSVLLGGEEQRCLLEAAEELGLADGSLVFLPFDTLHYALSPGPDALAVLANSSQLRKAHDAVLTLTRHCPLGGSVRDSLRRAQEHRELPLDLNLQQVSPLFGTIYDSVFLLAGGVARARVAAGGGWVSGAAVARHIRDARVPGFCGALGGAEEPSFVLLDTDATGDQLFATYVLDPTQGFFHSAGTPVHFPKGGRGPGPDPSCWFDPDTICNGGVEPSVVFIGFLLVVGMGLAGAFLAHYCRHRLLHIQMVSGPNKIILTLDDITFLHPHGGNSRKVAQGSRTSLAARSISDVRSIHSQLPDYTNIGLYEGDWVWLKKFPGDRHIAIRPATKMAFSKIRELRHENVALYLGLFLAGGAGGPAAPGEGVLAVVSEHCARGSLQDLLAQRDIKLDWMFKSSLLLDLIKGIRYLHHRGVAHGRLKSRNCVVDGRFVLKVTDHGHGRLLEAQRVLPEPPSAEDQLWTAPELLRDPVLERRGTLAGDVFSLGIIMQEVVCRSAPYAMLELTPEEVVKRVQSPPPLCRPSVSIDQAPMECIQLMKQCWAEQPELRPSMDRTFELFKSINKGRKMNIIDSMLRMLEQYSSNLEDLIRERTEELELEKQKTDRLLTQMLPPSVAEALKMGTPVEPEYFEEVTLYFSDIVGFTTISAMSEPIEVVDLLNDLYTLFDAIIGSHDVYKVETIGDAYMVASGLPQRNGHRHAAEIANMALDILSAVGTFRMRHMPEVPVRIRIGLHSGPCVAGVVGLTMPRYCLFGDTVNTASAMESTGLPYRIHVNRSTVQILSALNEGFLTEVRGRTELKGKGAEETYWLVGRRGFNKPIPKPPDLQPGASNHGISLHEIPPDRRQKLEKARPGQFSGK


Key:
[1] = molecular target: T2, CCD (aa fragment 817-965) of ROS-GC1 (Bos taurus, UniProt P55203, A1013R); test: cyclic GMP radioimmunoassay, purified protein; type: biochemical; details: 1 mM GTP, 4 mM MgCl2, pH 7.5, 37 °C
T2 construct: gene GUCY2D; homodimer
T2 sequence (P55203 873-1021 A1013R): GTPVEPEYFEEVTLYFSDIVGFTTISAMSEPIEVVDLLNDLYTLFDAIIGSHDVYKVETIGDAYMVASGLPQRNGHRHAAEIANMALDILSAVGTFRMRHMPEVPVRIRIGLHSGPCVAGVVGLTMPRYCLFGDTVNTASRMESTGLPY

[2] = molecular target: T3, CCD/CTE (aa 817-1054) of ROS-GC1 (Bos taurus, UniProt P55203, A1013R); test: cyclic GMP radioimmunoassay, purified protein; type: biochemical; details: 1 mM GTP, 4 mM MgCl2, pH 7.5, 37 °C
T3 construct: gene GUCY2D; dimer
T3 sequence (P55203 873-1110 A1013R): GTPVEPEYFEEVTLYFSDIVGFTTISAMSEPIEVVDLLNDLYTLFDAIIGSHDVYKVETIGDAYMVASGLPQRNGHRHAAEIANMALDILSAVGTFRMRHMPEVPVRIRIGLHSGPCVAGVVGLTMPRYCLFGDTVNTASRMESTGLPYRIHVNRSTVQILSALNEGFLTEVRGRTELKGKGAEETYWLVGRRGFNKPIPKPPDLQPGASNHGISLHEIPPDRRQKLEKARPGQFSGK

[3] = molecular target: T1, ROS-GC1 (rod outer segment guanylate cyclase type 1), full-length recombinant; test: cyclic GMP radioimmunoassay, COS cell membranes; Hill fit; type: biochemical; details: constant Mg2+, GTP 0-3 mM, pH 7.5, 37 °C; half-maximal concentration from Hill equation
[4] = substrate: Nc1nc2c(ncn2[C@@H]2O[C@H](COP(=O)(O)OP(=O)(O)OP(=O)(O)O)[C@@H](O)[C@H]2O)c(=O)[nH]1; test: as above; type: biochemical, Bos taurus; details: constant Mg2+, GTP 0-3 mM, pH 7.5, 37 °C, half-maximal concentration from Hill equation

Molecule | cyclic GMP radioimmunoassay, purified protein [1] | cyclic GMP radioimmunoassay, purified protein [2] | Km [3] [µM] | Km [4] [µM]
Nc1nc2c(ncn2[C@@H]2O[C@H](COP(=O)(O)OP(=O)(O)OP(=O)(O)O)[C@@H](O)[C@H]2O)c(=O)[nH]1 [GTP] | The isolated soluble CCD construct contained only a minimal basal specific catalytic activity | constructs lacked the TMD, illustrated by the CCD–CTE and CCD | 500 ± 30 | –
ROS-GC1 (rod outer segment guanylate cyclase type 1), full-length recombinant (Bos taurus; A1013R/C1002A) (protein, full-length wild-type cDNA expressed in COS-7 cells; membrane fraction assayed; homodimer) AVFTVGVLGPWACDPIFARARPDLAARLAASRLNHAAALEGGPRFEVALLPEPCRTPGSLGAVSSALTRVSGLVGPVNPAACRPAELLAQEAGVALVPWGCPGTRAAGTTAPVVTPAADALYALLRAFRWAHVALVTAPQDLWVEAGHALSTALRARGLPVALVTSMEPSDLSGAREALRRVQDGPRVRAVIMVMHSVLLGGEEQRCLLEAAEELGLADGSLVFLPFDTLHYALSPGPDALAVLANSSQLRKAHDAVLTLTRHCPLGGSVRDSLRRAQEHRELPLDLNLQQVSPLFGTIYDSVFLLAGGVARARVAAGGGWVSGAAVARHIRDARVPGFCGALGGAEEPSFVLLDTDATGDQLFATYVLDPTQGFFHSAGTPVHFPKGGRGPGPDPSCWFDPDTICNGGVEPSVVFIGFLLVVGMGLAGAFLAHYCRHRLLHIQMVSGPNKIILTLDDITFLHPHGGNSRKVAQGSRTSLAARSISDVRSIHSQLPDYTNIGLYEGDWVWLKKFPGDRHIAIRPATKMAFSKIRELRHENVALYLGLFLAGGAGGPAAPGEGVLAVVSEHCARGSLQDLLAQRDIKLDWMFKSSLLLDLIKGIRYLHHRGVAHGRLKSRNCVVDGRFVLKVTDHGHGRLLEAQRVLPEPPSAEDQLWTAPELLRDPVLERRGTLAGDVFSLGIIMQEVVCRSAPYAMLELTPEEVVKRVQSPPPLCRPSVSIDQAPMECIQLMKQCWAEQPELRPSMDRTFELFKSINKGRKMNIIDSMLRMLEQYSSNLEDLIRERTEELELEKQKTDRLLTQMLPPSVAEALKMGTPVEPEYFEEVTLYFSDIVGFTTISAMSEPIEVVDLLNDLYTLFDAIIGSHDVYKVETIGDAYMVASGLPQRNGHRHAAEIANMALDILSAVGTFRMRHMPEVPVRIRIGLHSGPCVAGVVGLTMPRYALFGDTVNTASRMESTGLPYRIHVNRSTVQILSALNEGFLTEVRGRTELKGKGAEETYWLVGRRGFNKPIPKPPDLQPGASNHGISLHEIPPDRRQKLEKARPGQFSGK | – | – | – | 640 ± 20
ROS-GC1 (rod outer segment guanylate cyclase type 1), full-length recombinant (Bos taurus; A1013R/N1009A) (protein, full-length wild-type cDNA expressed in COS-7 cells; membrane fraction assayed; homodimer) AVFTVGVLGPWACDPIFARARPDLAARLAASRLNHAAALEGGPRFEVALLPEPCRTPGSLGAVSSALTRVSGLVGPVNPAACRPAELLAQEAGVALVPWGCPGTRAAGTTAPVVTPAADALYALLRAFRWAHVALVTAPQDLWVEAGHALSTALRARGLPVALVTSMEPSDLSGAREALRRVQDGPRVRAVIMVMHSVLLGGEEQRCLLEAAEELGLADGSLVFLPFDTLHYALSPGPDALAVLANSSQLRKAHDAVLTLTRHCPLGGSVRDSLRRAQEHRELPLDLNLQQVSPLFGTIYDSVFLLAGGVARARVAAGGGWVSGAAVARHIRDARVPGFCGALGGAEEPSFVLLDTDATGDQLFATYVLDPTQGFFHSAGTPVHFPKGGRGPGPDPSCWFDPDTICNGGVEPSVVFIGFLLVVGMGLAGAFLAHYCRHRLLHIQMVSGPNKIILTLDDITFLHPHGGNSRKVAQGSRTSLAARSISDVRSIHSQLPDYTNIGLYEGDWVWLKKFPGDRHIAIRPATKMAFSKIRELRHENVALYLGLFLAGGAGGPAAPGEGVLAVVSEHCARGSLQDLLAQRDIKLDWMFKSSLLLDLIKGIRYLHHRGVAHGRLKSRNCVVDGRFVLKVTDHGHGRLLEAQRVLPEPPSAEDQLWTAPELLRDPVLERRGTLAGDVFSLGIIMQEVVCRSAPYAMLELTPEEVVKRVQSPPPLCRPSVSIDQAPMECIQLMKQCWAEQPELRPSMDRTFELFKSINKGRKMNIIDSMLRMLEQYSSNLEDLIRERTEELELEKQKTDRLLTQMLPPSVAEALKMGTPVEPEYFEEVTLYFSDIVGFTTISAMSEPIEVVDLLNDLYTLFDAIIGSHDVYKVETIGDAYMVASGLPQRNGHRHAAEIANMALDILSAVGTFRMRHMPEVPVRIRIGLHSGPCVAGVVGLTMPRYCLFGDTVATASRMESTGLPYRIHVNRSTVQILSALNEGFLTEVRGRTELKGKGAEETYWLVGRRGFNKPIPKPPDLQPGASNHGISLHEIPPDRRQKLEKARPGQFSGK | – | – | – | 490 ± 10
